Key:
human αvβ8 integrin = target: T1, human αvβ8 integrin (Homo sapiens, UniProt P06756+P26012); assay: LAP(TGF-β1)-αvβ8 competitive solid-phase ELISA binding assay; details: for IC50: competitive ELISA, immobilized LAP, soluble integrin
T1 construct: purchased R&D Systems (Biotechne brand) 4135-AV
Procedure: The affinity and selectivity of the integrin peptide ligands were ascertained according to a modified method previously reported by some of us.[33],[47] The binding was determined in a competitive solid-phase binding assay using extracellular matrix proteins, soluble integrins, and pertinent integrin-specific antibodies in an enzyme-linked immunosorbent assay (ELISA).
The experimental procedure is as described for the αvβ6 assay, except for the following modifications. The plates were coated, washed, and blocked as described above. Soluble integrin αvβ8 was mixed with an equal volume of serially diluted inhibitors resulting in a final integrin concentration of 0.25 μg/mL and 0.0032–10 μM for the inhibitors. The primary and secondary antibodies are the same as in the integrin αvβ6 assay. Visualization and analysis were performed as described above. Each plate contained a linear peptide ([…]) as the internal standard.[3]

integrin β6 = system: T2, integrin β6; assay: Integrin internalization assay, surface integrin β6 by flow cytometry; format: cell-based, human; details: J cells with nectin1, αvβ6 and αvβ8, 700 μM, 1 h at 37 °C
T2 construct: expressed in transfected cells; host or cells: J cells (derivatives of BHK-TK2 hamster cells)
Source text: Therefore, another mechanism might be responsible for the activity of 6 on J cells expressing αvβ8 integrin alone as well as the higher activity of 6 than that of 1 in cells that express both αvβ6 and αvβ8.[38] Thus, we hypothesized that 6 can prevent HSV-1 entry into J cells expressing nectin1 and the αvβ8 integrin alone by inducing internalization of the integrin itself. To validate our hypothesis, J cells were transfected with nectin1 and the two integrins αvβ6 and αvβ8 in the above-described manner. Then, 48 h after transfection, the cells were incubated for 60 min at 37 °C with 1 or 6. The surface expression of integrin β6 and β8, in the presence or the absence of peptides, was then evaluated by flow cytometry using FAB4155A (mAbβ6) and FAB4775A (mAbβ8) monoclonal antibodies that recognize other integrin regions than the RGD-binding domain.
Figure 5 Integrin internalization assay. J cells were transfected with a low amount (75 ng of DNA/24 well) of nectin1 plus αvβ6 integrin (300 ng of DNA/24 well) and αvβ8 integrin (300 ng of DNA/24 well). Then, 48 h after transfection, the cells were exposed to 700 μM peptides for 1 h at 37 °C. […] Integrin and nectin1 surface expression levels were quantified as flow cytometry expression of the APC mean fluorescence intensity (MFI) of gated cells. […]

gHsolST = assay: gH binding assay, gHsolST binding to transfected J cells; format: cell-based, HSV-1; details: J cells with nectin1, αvβ6 and αvβ8, 700 μM peptide, 2 μM gHsolST
Procedure: To further verify this hypothesis, the soluble form of gH (gHsolST) was used in a soluble protein in the cell-binding assay on J cells transfected with nectin1 and the αvβ6 and αvβ8 integrins, treated or untreated with each peptide.
Figure 6 gH binding assay. J cells were transfected with a low amount (75 ng of DNA/24 well) of nectin1 plus αvβ6 integrin (300 ng of DNA/24 well) and αvβ8 integrin (300 ng of DNA/24 well). Then, 48 h after transfection, the cells were exposed to 700 μM peptides for 1 h at 37 °C. Cells derived from samples treated or not treated with peptides were incubated for 1 h at 4 °C with gHsolST or gBsolST. Samples were washed and subsequently incubated for 1 h at 4 °C with phycoerythrin (PE)-conjugated mAb to the One-STrEP tag (Strep-Tactin). gHsolST and gBsolST binding to the cell surface were quantified as the flow cytometry expression of the PE mean fluorescence intensity (MFI) of gated cells. Histograms represent the average of triplicates ± SD.
The remaining half of the samples were used for the gH binding assay. […] Control cells were incubated with 2 μM gBsolST in 100 μL of the same buffer used for gHsolST and the binding of soluble protein was detected as described for the gH binding assay. Cells were analyzed by cytofluorimetric analyses using an AccuriC6 flow cytometer (Becton Dickinson). […]

Row | SMILES | IC50 (human αvβ8 integrin) [nM] | membrane expression of integrin β6 (in words) (integrin β6) | binding of gHsolST to cells (in words) (gHsolST) | fold more potent than 1 for αvβ8 (human αvβ8 integrin; 60 vs 174 nM) [fold]
1 | N=C(N)NCCC[C@@H]1NC(=O)CC[C@@H](C(N)=O)NC(=O)[C@H](C2CCCCC2)NC(=O)[C@H](CC(=O)O)NC(=O)CNC1=O [compound 1, [Arg-Gly-Asp-Chg-Glu]-CONH2] | 174 ± 31 | reduced | only partially reduced | –
2 | CN1C(=O)[C@H](C2CCCCC2)NC(=O)[C@H](CC(=O)O)NC(=O)CNC(=O)[C@H](CCCNC(=N)N)NC(=O)CC[C@H]1C(N)=O [compound 6, [Arg-Gly-Asp-Chg-(NMe)Glu]-CONH2] | 60 ± 2 | reduced | strongly reduced | 3
